{
  "source": "patent US20100069345A1",
  "about": "“Lanthanide-porphyrin complexes as anti-tumor agents” (priority 2005, published 2010)",
  "key": {"[1]": {"tested_on": "cytochrome c", "test": "Western blotting of mitochondrial and cytosolic fractions, cytochrome c", "format": "cell-based, human", "conditions": "HeLa treated with complex 1", "method": "Preparation of Mitochondrial and Cytosolic Fractions. Subcellular fractionations of cells were carried out as described previously with modifications […]. In brief, cells were harvested by centrifugation at 1000 g for 5 min at 4° C. Cell pellets were washed once with ice-cold phosphate-buffered saline and resuspended in 5 volumes of buffer A (20 mM HEPES-KOH, pH 7.5, 10 mM KCl, 1.5 mM MgCl2, 1 mM sodium EDTA, 1 mM sodium EGTA, 1 mM dithiothreitol, 0.1 mM phenylmethylsulfonyl fluoride, 1× proteinase inhibitor mix) containing 250 mM sucrose. After incubation on ice for 15 min, the cells were homogenized with a 25-gauge needle for 20 strokes, and the homogenates were centrifuged at 1,000 g for 5 min at 4° C. […] The protein concentration of cell lysates in different portions was measured using a protein detection kit (Bio-Rad). […] Signals were detected using an ECL detection kit (Amersham Pharmacia Biotech) followed by exposure to X-ray films (Fujifilm).\nAfter treatment with complex 1 for different time intervals, the expressions of caspase 3, Bid and PARP were detected by the Western blotting analysis. […]"}, "[2]": {"tested_on": "normal human lung fibroblast cells (CCD-19Lu)", "test": "MTT cell viability assay, CCD-19Lu", "format": "cell-based", "source_text": "(§1) Human cervical epitheloid carcinoma cells (HeLa), human hepatocellular carcinoma cells (HepG2 and Hep3B), human breast cancer cells (MCF-7), human coloadenocarcinoma cells (HCT-8), and normal human lung fibroblast cells (CCD-19Lu) were purchased from American Type Culture Collection (ATCC) Rockville, Md., USA. The human hepatocellular cancinoma cells QGY-7703, and the multi-drug resistant cell line QGY-TR50 derived from QGY-7703, were generously provided by Prof. Yong Xie (The Hong Kong University of Science and Technology, Hong Kong PRC). QGY-TR50 cells were isolated and cultured as described (J. Zhou, S. C. Cheng, D. Luo, Y. Xie Biochem. Biophys. Res. Commun. 2001, 280, 1237-1242). Human nasopharyngeal carcinoma cells (SUNE1 and its cisplatin-resistant variant—CNE2) were derived from poorly differentiated NPC in Chinese patients and were generously provided by Dr. S. W. Tsao (The University of Hong Kong, Hong Kong PRC). Cell culture flasks and 96-well microtitre plates were from Nalge Nunc Int. Culture medium, other medium constituents and phosphate buffer saline (PBS) were obtained by Gibco BRL Rockville, Md., USA. Cell Proliferation kit I (MTT) was purchased from Roche. Mannheim, Germany."}, "[3]": {"test": "Stability by UV-visible in DMSO/Tris buffer", "format": "physicochemical", "conditions": "DMSO/Tris buffer solution (1:9), 24 h, room temperature; complex 1 3 μM, complex 2b 7 μM", "method": "UV-visible experiments. The absorption spectra of 3 μM of complex 1 in DMSO/Tris buffer solution (1:9) were monitored for 24 h. […] The complex was monitored over 24 h at room temperature and about 23% decrease in the Soret band intensity was recorded without any significant spectral shift in both Soret and Q-bands (FIG. 5). The absorption spectra of 7 μM of complex 2b in DMSO/Tris buffer solution (1:9) were also monitored for 24 h."}, "[4]": {"tested_on": "human hepatocellular cancinoma cells QGY-7703", "test": "MTT cell viability assay, QGY-7703", "format": "cell-based", "source_text": "as §1"}, "[5]": {"test": "Stability by UV-visible in presence of reduced glutathione", "format": "physicochemical", "conditions": "6 mM GSH in DMSO/Tris buffer solution (1:9)", "method": "Moreover, concomitant band broadening in spectrum of complex 1 was observed after 24 h. No significant spectral shift and formation of new absorption band were observed. […] Comparing with the spectra of complex 1, the decrease in Soret band intensity of complex 2b is less significant. The intensities are only found to decrease in 2% and 19% after 2 h and 24 h, respectively. Also, there is no significant spectral shift and formation of new absorption band were observed (FIG. 8)."}, "[6]": {"tested_on": "human cervical epitheloid carcinoma cells (HeLa)", "test": "MTT cell viability assay, HeLa", "format": "cell-based", "source_text": "as §1"}, "[7]": {"tested_on": "human coloadenocarcinoma cells (HCT-8)", "test": "MTT cell viability assay, HCT-8", "format": "cell-based", "source_text": "as §1"}, "[8]": {"tested_on": "HeLa cells", "test": "Effect of 3-MA on 1-induced cytotoxicity (MTT)", "format": "cell-based, human", "conditions": "3-MA 10 mM 1 h then 1 for 24 h, P<0.001", "method": "HeLa cells were pre-treated with 3-MA (10 mM) for 1 h, and then with 1 for 24 h as indicated. Cell viability was measured using MTT assay *, P<0.001. Effect of 3-MA on 1-induced cytotoxicity. Cells were seeded on 96-well microtitre plates (8×10^3 cells per well). After overnight incubation, the cells were pre-incubated with 3-methyladenine (3-MA, 10 mM) for 1 hour and then in the presence of 1 (DMSO<1%) for 24 h. Cell viability was measured by MTT assay as described before."}, "[9]": {"conditions": "IC50 of cisplatin divided by IC50 of complex"}},
  "data": [
    {"substance": "[Yb2(OEP)2](μ-OH)2 [Complex 1]", "values": [
      {"measurement": "amount of cytochrome c in the cytosolic fraction", "setting": "[1]", "value": "increase"},
      {"measurement": "amount of cytochrome c in the mitochondria", "setting": "[1]", "value": "corresponding decrease"},
      {"measurement": "IC50 ratio cisplatin/complex, CCD-19Lu", "setting": "[2]; [9]", "value": 16.8},
      {"measurement": "IC50", "setting": "[2]; MTT, 37° C., 48 h, mean ± SD", "value": "5400 ± 6800", "unit": "nM"},
      {"measurement": "decrease in Soret band intensity", "setting": "[3]", "value": "about 23%"},
      {"measurement": "IC50 ratio cisplatin/complex, QGY-7703", "setting": "[4]; [9]", "value": 763},
      {"measurement": "IC50", "setting": "[4]; MTT, 37° C., 48 h, mean ± SD", "value": 60, "unit": "nM"},
      {"measurement": "times more effective than cisplatin in eradicating QGY-7703 human liver cancer cell line", "setting": "[4]; compared with cisplatin", "value": 760, "unit": "times"},
      {"measurement": "decrease in Soret band intensity, reduced glutathione, 2 h", "setting": "[5]; 2 h", "value": 7, "unit": "%"},
      {"measurement": "decrease in Soret band intensity, reduced glutathione, 24 h", "setting": "[5]; 24 h", "value": 52, "unit": "%"},
      {"measurement": "IC50 ratio cisplatin/complex, HeLa", "setting": "[6]; [9]", "value": 30.2},
      {"measurement": "IC50", "setting": "[6]; MTT, 37° C., 48 h, mean ± SD of three experiments", "value": "470 ± 300", "unit": "nM"},
      {"measurement": "IC50 ratio cisplatin/complex, HCT-8", "setting": "[7]; [9]", "value": 11.6},
      {"measurement": "IC50", "setting": "[7]; MTT, 37° C., 48 h, mean ± SD", "value": "2270 ± 600", "unit": "nM"},
      {"measurement": "effect of 3-MA pretreatment on viability of 1-treated cells", "setting": "[8]", "value": "significantly increases cell viability"}
    ]}
  ]
}
